Key:
[1] = Plasma pharmacokinetics and tissue distribution 2 h after oral cabazitaxel 10 mg/kg with vehicle or 25 mg/kg ritonavir in wild-type, Oatp1a/1b−/−, Oatp1a/1b/2b1−/−, OATP1B1- and OATP1B3-transgenic mice; type: in vivo; details: for Cmax / Tmax / AUC(0-t): male, FVB, mouse, plasma, po, 10 mg/kg; for AUC(0-t): read-out: AUC0-2 h; for enhancement of AUC0-2h by ritonavir: ritonavir 25 mg/kg compared to vehicle group; for CLiver / Cbrain / Pbrain, brain accumulation per h / SIC (% of dose), small intestinal content: 2 h
Method: All animals were fasted 2 to 3 hours prior to the start of the experiment to minimize variation in absorption after oral administration. […] Subsequently, cardiac puncture was performed with a heparinized needle and syringe collecting a final blood sample. […] All samples were stored at −30° C. until analysis.
Differences were considered statistically significant when P<0.05. All data are presented as geometric mean±SD.

[2] = input of human simulation, cited from earlier work
in vivo [3] = details: mouse; for AUC(0-t) / AUC0-24 h: po; for AUC(0-t): AUC0-24 h
Method: (§1) The Jevtana (10 mg/mL) solution contains 0.26 mg/mL polysorbate 80 and 15% (w/v) ethanol, and is adjusted to pH 2-6 with citric acid. […] The stock solution was further diluted 5-fold with water to reach a 2.5 mg/mL dosing solution for oral administration. The vehicle solution only consists of polysorbate 80, ethanol and water (1:1:8, v/v/v). […] All dosing solutions were prepared freshly on the day of the experiment.
(§2) At the termination time point of 24 hours, mice were anesthetized using an isoflurane evaporator with 3% isoflurane with 0.8 L/min air and 0.3 L/min oxygen. A final blood sample was taken using cardiac puncture, using Eppendorf tubes previously prepared with heparin as an anticoagulant. Subsequently, the anesthetized mice were sacrificed by cervical dislocation and the tissues of interest were collected. Brain, liver, spleen, kidney, small intestine, and testis were collected. The small intestinal content (SIC) was separately collected by removing this from the small intestinal tissue, which was subsequently rinsed with saline to remove possibly fecal residue. The blood samples were centrifuged at 9,000×g for 6 minutes at 4° C., and the plasma fraction was isolated and stored at −30° C. until analysis. Brain, liver, spleen, kidney, small intestinal tissue, SIC, and testis were homogenized in a FastPrep-24™ 5G homogenizer (M. P. Biomedicals, Santa Ana, CA, USA) for 1 min with 1, 3, 1, 2, 3, 2, and 1 mL of 2% (w/v) BSA in Milli-Q water, respectively. Until analysis of the samples, they were all stored at −30° C.
(§3) Pharmacokinetic parameters were estimated by non-compartmental analysis using the software package of PK solutions 2.0.2 (SUMMIT, Research Service). The area under the curve (AUC) of the plasma-concentration time curve for all the compounds was calculated using the linear trapezoidal rule without extrapolating to infinity. The peak plasma concentration (Cmax) and the time to reach peak plasma concentration (Tmax) were obtained directly from the individual raw data. For the statistical analysis and the graphs GraphPad Prism 9 (GraphPad Software Inc., La Jolla, CA, USA) was used. The statistics for the comparison of multiple groups were calculated with the one-way analysis of variance (ANOVA), whereas Sidak's post hoc correction was performed. Log-transformation before statistical analysis was applied, when variances within the groups were not homogeneously distributed. Differences were considered statistically significant when P<0.05. All data are presented as geometric mean±SD.

in vivo [4] = details: male, mouse; for Kp at 24 h: Brain-to-plasma ratio
Method: as §1, §2, §3
The last parameter is in many cases the most useful, as it takes the overall exposure into account.

[5] = OATP1B3-transgenic mice, ritonavir 25 mg/kg oral, cabazitaxel 10 mg/kg oral
[6] = OATP1B3-transgenic mice, vehicle pretreatment, oral 10 mg/kg cabazitaxel
[7] = OATP1B3-transgenic mice, vehicle, cabazitaxel 10 mg/kg oral
[8] = Oatp1a/1b/2b1−/− mice, ritonavir 25 mg/kg oral, cabazitaxel 10 mg/kg oral
[9] = Oatp1a/1b/2b1−/− mice, vehicle pretreatment, oral 10 mg/kg cabazitaxel
[10] = Oatp1a/1b/2b1−/− mice, vehicle, cabazitaxel 10 mg/kg oral
[11] = Oatp1a/1b−/− mice, ritonavir 25 mg/kg oral, cabazitaxel 10 mg/kg oral
[12] = Oatp1a/1b−/− mice, vehicle pretreatment, oral 10 mg/kg cabazitaxel
[13] = Oatp1a/1b−/− mice, vehicle, cabazitaxel 10 mg/kg oral
[14] = wild-type mice, ritonavir 25 mg/kg oral, cabazitaxel 10 mg/kg oral
[15] = wild-type mice, vehicle pretreatment, oral 10 mg/kg cabazitaxel
[16] = wild-type mice, vehicle, cabazitaxel 10 mg/kg oral
[17] = Cyp3aXAV vs Cyp3a−/− (FVB background)
[18] = Cyp3aXAV vs Cyp3a−/− (FVB background), 24 h

CO[C@H]1C(=O)[C@]2(C)[C@@H](OC)C[C@H]3OC[C@@]3(OC(C)=O)[C@H]2[C@H](OC(=O)c2ccccc2)[C@]2(O)C[C@H](OC(=O)[C@H](O)[C@@H](NC(=O)OC(C)(C)C)c3ccccc3)C(C)=C1C2(C)C [cabazitaxel]
Cmax [1, 5]: 3860 nM | Tmax [1, 5]: 60 min | Cmax [1, 6]: 2690 ± 761 nM | Tmax [1, 6]: 27.5 min | AUC(0-t) ([1]; OATP1B3-transgenic mice, vehicle pretreatment, oral 10 mg/kg cabazitaxel, 0-2 h): 3.51 ± 1.19 µM·h | Cmax [1, 7]: 2690 nM | Tmax [1, 7]: 27.5 min | Cmax [1, 8]: 4270 nM | Tmax [1, 8]: 70 min | Cmax [1, 9]: 2740 ± 1100 nM | Tmax [1, 9]: 26.7 min | AUC(0-t) ([1]; Oatp1a/1b/2b1−/− mice, vehicle pretreatment, oral 10 mg/kg cabazitaxel, 0-2 h): 2.88 ± 0.616 µM·h | Cmax [1, 10]: 2740 nM | Tmax [1, 10]: 26.7 min | Cmax [1, 11]: 4700 nM | Tmax [1, 11]: 80 min | Cmax [1, 12]: 2120 ± 398 nM | Tmax [1, 12]: 24.2 min | AUC(0-t) ([1]; Oatp1a/1b−/− mice, vehicle pretreatment, oral 10 mg/kg cabazitaxel, 0-2 h): 2.62 ± 0.417 µM·h | Cmax [1, 13]: 2120 nM | Tmax [1, 13]: 24.2 min | Cmax [1, 14]: 4530 nM | Tmax [1, 14]: 120 min | Cmax [1, 15]: 2820 ± 694 nM | Tmax [1, 15]: 25.8 min | AUC(0-t) ([1]; wild-type mice, vehicle pretreatment, oral 10 mg/kg cabazitaxel, 0-2 h): 3.28 ± 1.32 µM·h | Cmax [1, 16]: 2820 nM | Tmax [1, 16]: 25.8 min | AUC(0-t) ([1]; wild-type, wild-type mice, ritonavir 25 mg/kg oral, cabazitaxel 10 mg/kg oral): 7.62 µM·h | AUC(0-t) ([1]; wild-type, wild-type mice, vehicle, cabazitaxel 10 mg/kg oral): 3.28 µM·h | enhancement of AUC0-2h by ritonavir ([1]; transgenic OATP1B1 mice): 2.1 fold | enhancement of AUC0-2h by ritonavir ([1]; transgenic OATP1B3 mice): 1.9 fold | CLiver [1, 14]: 21554 pmol/g | Cbrain [1, 14]: 235 pmol/g | Pbrain, brain accumulation per h [1, 14]: 0.026 h⁻¹ | SIC (% of dose), small intestinal content [1, 14]: 1.34 % of dose | CLiver [1, 16]: 2703 pmol/g | Cbrain [1, 16]: 50.0 pmol/g | Pbrain, brain accumulation per h [1, 16]: 0.013 h⁻¹ | SIC (% of dose), small intestinal content [1, 16]: 1.14 % of dose | CLint, Intrinsic clearance ([2]; calculated from CL 48.5 and QH 80, sources (17, 18)): 123.17 L/h | IIV CL [2]: 38.8 CV% | Lag-time on Ka ([2]; observed for indinavir PK when co-administered with ritonavir, source (27)): 0.483 h | Ka, First order absorption rate constant ([2]; reported for docetaxel, source (26)): 0.7 h⁻¹ | IIV K12 ([2]; source (17)): 84.0 CV% | IIV K13 ([2]; source (17)): 64.2 CV% | IIV K31 ([2]; source (17)): 28.2 CV% | IIV VI ([2]; source (17)): 93.4 CV% | IOV CL ([2]; source (17)): 19.4 CV% | IOV V1 ([2]; source (17)): 45.3 CV% | K12 ([2]; source (17)): 2.48 h⁻¹ | K13 ([2]; source (17)): 4.84 h⁻¹ | K21 ([2]; source (17)): 0.604 h⁻¹ | K31 ([2]; source (17)): 0.0266 h⁻¹ | V1 ([2]; source (17)): 26 L | increase in AUC0-24h (in vivo [3]; male, Cyp3aXAV (FVB background), 10 mg/kg): 10.1 fold | AUC(0-t) (in vivo [3]; male, Cyp3aXAV (human CYP3A in Cyp3a−/−, FVB background), 10 mg/kg): 1.24 ± 0.177 µM·h | AUC0-24 h (in vivo [3]; male, FVB, Cyp3aXAV, 10 mg/kg): 12.515 µM·h | AUC(0-t) (in vivo [3]; male, FVB, Cyp3aXAV, 10 mg/kg): 12.5 ± 5.41 µM·h | AUC0-24 h (in vivo [3]; male, FVB, wild-type, 10 mg/kg): 72.771 µM·h | AUC(0-t) (in vivo [3]; male, FVB, wild-type, 10 mg/kg): 72.8 ± 2.62 µM·h | alteration in AUC0-24h (in vivo [3]; 1 mg/kg): no alteration | Kp at 24 h (in vivo [4]; Cyp3aXAV (FVB background), po, 10 mg/kg): 1.52 | reduced AUC0-24h (in vivo [4]; [17]): 88.8 fold | reduced Cmax (in vivo [4]; [17]): 12.1 fold | decrease of liver concentration (in vivo [4]; [18]): 341.2 fold | reduction of brain exposure (in vivo [4]; [18]): 167.6 fold | Kp at 24 h (in vivo [4]; Cyp3a−/− (FVB background), po, 10 mg/kg): 0.231 | Tmax (in vivo [4]; Cyp3a−/− (FVB background), po, 10 mg/kg, Tmax): 125 min | Kp at 24 h (in vivo [4]; wild-type FVB, po, 10 mg/kg): 1.17
